Measured values published in patent US20250313546A1, “NUCLEIC ACID BINDERS” (UNIVERSITY OF STRATHCLYDE, priority 2022, published 2025).
Converted amounts (≈) assume the structure as drawn.

Legend:
[1] = test system: Escherichia coli (ATCC 25922); test: Antibacterial MIC, broth microdilution (CLSI); format: cell-based; settings: for MIC80: Escherichia coli, ATCC25922, read-out: MIC80 E. coli
[2] = test system: Enterococcus faecalis (ATCC 51299); test: Antibacterial MIC, broth microdilution (CLSI); format: cell-based; settings: for MIC80: Enterococcus faecalis, ATCC51299, read-out: MIC80 E. faecalis
[3] = test system: Genomic double stranded DNA (salmon); test: Fluorescence intercalator displacement (FID) assay, SYBR-safe probe; settings: 20 μM compound, 30° C., lower % = stronger binding
Method: (§1) The ability of compounds of the invention to bind to DNA and RNA was assessed using a fluorescence intercalator displacement assay. Genomic double stranded DNA (salmon) or PolyAU double stranded RNA is treated with probe molecule (Sybr-Safe) that increases its fluorescence upon binding to nucleic acids.
(§2) polyAU RNA (Polyadenylic acid—Polyuridylic acid sodium salt, double-stranded homopolymer, P1537, Merck) or genomic DNA (Deoxyribonucleic acid sodium salt from salmon testes, D1626, Merck) was dissolved in 1 mM pH 7.4 phosphate buffer (containing 0.27 mM potassium chloride, 13.7 mM sodium chloride) to a concentration of 1 mg/mL in, SybrSafe (SYBR® Safe DNA Gel Stain, ×10,000 in DMSO, S33102 Invitrogen) was used as supplied by the manufacturer in DMSO, and compounds of the invention were prepared as 10 mM stocks in DMSO. These stock solutions were diluted appropriately with each other and 1 mM phosphate buffer to give test solutions comprised of 20 μM compound of the invention, 12500-fold dilution of SybrSafe and 3.76 ng/mL RNA/DNA. Control solutions of RNA/DNA and SybrSafe, RNA/DNA, and SybrSafe at these concentrations were also prepared. Test and control solutions were heated to 30° C. and the fluorescence of each solution was measured using the SYBER filter setting of a StepOnePlus using melt analysis mode (StepOne Software v2.3). The reduction of fluorescence due to the binding of the compound of the invention to the RNA/DNA was calculated as a normalised percentage based on the fluorescence measured due to the control with SybrSafe and RNA/DNA as maximum and the control with only SybrSafe as minimum.
(§3) A reduction in normalised % is indicative of probe displacement and thus strong nucleic acid binding.

[4] = test system: PolyAU double stranded RNA; test: as above; settings: 20 μM compound, 30° C., lower % = stronger binding
Method: as §1, §2, §3

[5] = test system: Staphylococcus aureus (ATCC 43300); test: Antibacterial MIC, broth microdilution (CLSI); format: cell-based; settings: for MIC80: Staphylococcus aureus, ATCC43300, read-out: MIC80 S. aureus

| SMILES | MIC80 [1] | MIC80 [2] | % Normalised Fluorescence with gDNA [3] | % Normalised Fluorescence with polyAU RNA [4] | MIC80 [5] | MIC80 E. coli ([1]; MIC at 80% inhibition, ATCC 25922) | MIC80 E. faecalis ([2]; MIC at 80% inhibition, ATCC 51299) | MIC80 S. aureus ([5]; MIC at 80% inhibition, ATCC 43300) |
| --- | --- | --- | --- | --- | --- | --- | --- | --- |
| CN(C)c1ccc(/C=C/c2ccc(C(=O)Nc3c[nH]c(C(=O)Nc4cc(C(=O)NCCN5CCOCC5)n(C)c4)c3)cn2)cc1 [IIIb2, (E)-6-(4-(dimethylamino)styryl)-N-(5-((1-methyl-5-((2-morpholinoethyl)carbamoyl)-1H-pyrrol-3-yl)carbamoyl)-1H-pyrrol-3-yl)nicotinamide] | > 100 µM | > 100 µM | 31% | 85% | 5 to 25 µM (≈ 3.05 to 15.3 µg/mL) |  |  |  |
| Cn1cc(NC(=O)c2cc(NC(=O)c3ccc(/C=C/c4cnc5ccccc5c4)cc3)cn2C)cc1C(=O)NCCCCN1CCCCC1 [IVa11, (E)-1-methyl-4-(1-methyl-4-(4-(2-(quinolin-3-yl)vinyl)benzamido)-1H-pyrrole-2-carboxamido)-N-(4-(piperidin-1-yl)butyl)-1H-pyrrole-2-carboxamide] | > 100 µM | 5 to 25 µM (≈ 3.29 to 16.4 µg/mL) | 42% | 68% | 5 to 25 µM (≈ 3.29 to 16.4 µg/mL) |  |  |  |
| Cn1cc(NC(=O)c2cc(NC(=O)c3ccc(/C=C/c4cnc5ccccc5c4)cc3)cn2C)cc1C(=O)NCCCCN1CCCC1 [IVa12, (E)-1-methyl-4-(1-methyl-4-(4-(2-(quinolin-3-yl)vinyl)benzamido)-1H-pyrrole-2-carboxamido)-N-(4-(pyrrolidin-1-yl)butyl)-1H-pyrrole-2-carboxamide] | > 100 µM | < 5 µM | 50% | 71% | 5 to 25 µM (≈ 3.22 to 16.1 µg/mL) |  |  |  |
| CNC(=O)c1cc(NC(=O)c2cc(NC(=O)c3ccc(/C=C/c4ccc(N(C)C)cc4)nc3)cn2C)cn1C [IVa13, (E)-6-(4-(dimethylamino)styryl)-N-(1-methyl-5-((1-methyl-5-(methylcarbamoyl)-1H-pyrrol-3-yl)carbamoyl)-1H-pyrrol-3-yl)nicotinamide] | > 100 µM | < 5 µM | 80% | 83% | < 5 µM |  |  |  |
| CN(C)c1ccc(/C=C/c2ccc(C(=O)Nc3cc(C(=O)Nc4cc(C(=O)NCCCCN5CCCCC5)n(C)c4)n(C)c3)cn2)cc1 [IVa14, (E)-6-(4-(dimethylamino)styryl)-N-(1-methyl-5-((1-methyl-5-((4-(piperidin-1-yl)butyl)carbamoyl)-1H-pyrrol-3-yl)carbamoyl)-1H-pyrrol-3-yl)nicotinamide] | > 100 µM | 25 to 100 µM (≈ 16.3 to 65.1 µg/mL) | 19% | 12% | 5 to 25 µM (≈ 3.25 to 16.3 µg/mL) |  |  |  |
| CN(C)c1ccc(/C=C/c2ccc(C(=O)Nc3cc(C(=O)Nc4cc(C(=O)NCCCCN5CCCC5)n(C)c4)n(C)c3)cn2)cc1 [IVa15, (E)-6-(4-(dimethylamino)styryl)-N-(1-methyl-5-((1-methyl-5-((4-(pyrrolidin-1-yl)butyl)carbamoyl)-1H-pyrrol-3-yl)carbamoyl)-1H-pyrrol-3-yl)nicotinamide] | > 100 µM | 25 to 100 µM (≈ 15.9 to 63.7 µg/mL) | 15% | 8% | > 100 µM |  |  |  |
| CCNC(=N)CCNC(=O)c1cc(NC(=O)c2cc(NC(=O)c3ccc(/C=C/c4ccc(OC)cc4)cc3)cn2C)cn1C [Ia20, (E)-N-(3-(ethylamino)-3-iminopropyl)-4-(4-(4-(4-methoxystyryl)benzamido)-1-methyl-1H-pyrrole-2-carboxamido)-1-methyl-1H-pyrrole-2-carboxamide] | 25 to 100 µM (≈ 14.9 to 59.6 µg/mL) | 5 to 25 µM (≈ 2.98 to 14.9 µg/mL) | 3% | 6% | 5 to 25 µM (≈ 2.98 to 14.9 µg/mL) |  |  |  |
| CC/N=C(/CCNC(=O)c1cc(NC(=O)c2cc(NC(=O)c3ccc(/C=C/c4ccc5nonc5c4)cc3)cn2C)cn1C)NCC [Ia25, 4-(4-((E)-2-(benzo[c][1,2,5]oxadiazol-5-yl)vinyl)benzamido)-N-(5-(((Z)-3-(ethylamino)-3-(ethylimino)propyl)carbamoyl)-1-methyl-1H-pyrrol-3-yl)-1-methyl-1H-pyrrole-2-carboxamide] | > 100 µM | > 100 µM | 28% | 12% | 25 to 100 µM (≈ 15.9 to 63.6 µg/mL) |  |  |  |
| CONC(=N)CCNC(=O)c1cc(NC(=O)c2cc(NC(=O)c3ccc(/C=C/c4cnc5ccccc5c4)cc3)cn2C)cn1C [Ia28, (E)-N-(3-imino-3-(methoxyamino)propyl)-1-methyl-4-(1-methyl-4-(4-(2-(quinolin-3-yl)vinyl)benzamido)-1H-pyrrole-2-carboxamido)-1H-pyrrole-2-carboxamide] | > 100 µM | < 5 µM | 34% | 66% | < 5 µM |  |  |  |
| [H]/N=C(\CCNC(=O)c1cc(NC(=O)c2cc(NC(=O)c3ccc(C=Cc4ccc5nonc5c4)cc3)cn2C)cn1C)NCCOCCOCCOC [Ia40, (E)-4-(4-(2-(benzo[c][1,2,5]oxadiazol-5-yl)vinyl)benzamido)-N-(5-((12-imino-2,5,8-trioxa-11-azatetradecan-14-yl)carbamoyl)-1-methyl-1H-pyrrol-3-yl)-1-methyl-1H-pyrrole-2-carboxamide] | > 100 µM | 5 to 25 µM (≈ 3.63 to 18.1 µg/mL) | 32% | 13% | < 5 µM |  |  |  |
| CN1CCN(CCNC(=N)CCNC(=O)c2cc(NC(=O)c3cc(NC(=O)c4ccc(/C=C/c5cnc6ccccc6c5)cc4)cn3C)cn2C)CC1 [Ia41, (E)-N-(3-imino-3-((2-(4-methylpiperazin-1-yl)ethyl)amino)propyl)-1-methyl-4-(1-methyl-4-(4-(2-(quinolin-3-yl)vinyl)benzamido)-1H-pyrrole-2-carboxamido)-1H-pyrrole-2-carboxamide] | > 100 µM | 25 to 100 µM (≈ 17.9 to 71.5 µg/mL) | 16% | 6% | 5 to 25 µM (≈ 3.57 to 17.9 µg/mL) |  |  |  |
| [H]/N=C(\CCNC(=O)c1cc(NC(=O)c2cc(NC(=O)c3ccc(C=Cc4ccc5nonc5c4)cc3)cn2C)cn1C)NCCN1CCN(C)CC1 [Ia42, (E)-4-(4-(2-(benzo[c][1,2,5]oxadiazol-5-yl)vinyl)benzamido)-N-(5-((3-imino-3-((2-(4-methylpiperazin-1-yl)ethyl)amino)propyl)carbamoyl)-1-methyl-1H-pyrrol-3-yl)-1-methyl-1H-pyrrole-2-carboxamide] | > 100 µM | 5 to 25 µM (≈ 3.53 to 17.6 µg/mL) | 20% | 4% | 5 to 25 µM (≈ 3.53 to 17.6 µg/mL) |  |  |  |
| [H]/N=C(\CCNC(=O)c1cc(NC(=O)c2cc(NC(=O)c3ccc(C=Cc4ccc5nonc5c4)cc3)cn2C)cn1C)NCCc1ccccc1 [Ia43, (E)-4-(4-(2-(benzo[c][1,2,5]oxadiazol-5-yl)vinyl)benzamido)-N-(5-((3-imino-3-(phenethylamino)propyl)carbamoyl)-1-methyl-1H-pyrrol-3-yl)-1-methyl-1H-pyrrole-2-carboxamide] | > 100 µM | < 5 µM | 15% | 42% | < 5 µM |  |  |  |
| CCCCCCC[N+](C)(C)CCNC(=O)c1cc(NC(=O)c2cc(NC(=O)c3ccc(/C=C/c4cnc5ccccc5c4)cc3)cn2C)cn1C [Ic6, (E)-N,N-dimethyl-N-(2-(1-methyl-4-(1-methyl-4-(4-(2-(quinolin-3-yl)vinyl)benzamido)-1H-pyrrole-2-carboxamido)-1H-pyrrole-2-carboxamido)ethyl)heptan-1-aminium] |  |  | 50% | 12% |  | — (— means MIC80 > 100 μM) | ** (** means 5 μM < MIC80 <= 25 μM) | *** (*** means MIC80 <= 5 μM) |
| CCCCCCCCCCCCC[N+](C)(C)CCNC(=O)c1cc(NC(=O)c2cc(NC(=O)c3ccc(/C=C/c4cnc5ccccc5c4)cc3)cn2C)cn1C [Ic12, (E)-N,N-dimethyl-N-(2-(1-methyl-4-(1-methyl-4-(4-(2-(quinolin-3-yl)vinyl)benzamido)-1H-pyrrole-2-carboxamido)-1H-pyrrole-2-carboxamido)ethyl)tridecan-1-aminium] |  |  | 94% | 38% |  |  |  |  |
| CCCCCCCCCCCCCCCCC[N+](C)(C)CCNC(=O)c1cc(NC(=O)c2cc(NC(=O)c3ccc(/C=C/c4cnc5ccccc5c4)cc3)cn2C)cn1C [Ic16, (E)-N,N-dimethyl-N-(2-(1-methyl-4-(1-methyl-4-(4-(2-(quinolin-3-yl)vinyl)benzamido)-1H-pyrrole-2-carboxamido)-1H-pyrrole-2-carboxamido)ethyl)heptadecan-1-aminium] |  |  | 98% | 64% |  |  |  |  |
